This note sets out measurements from ChEMBL document CHEMBL5321208, “The effect of side chain variations on quinazoline-pyrimidine G-quadruplex DNA ligands” (Eur J Med Chem, 2023).

A word on the ΔTm: it is the shift of the melting midpoint relative to a reference. One may read the IC50 as the concentration at which inhibition is half-maximal. A word on the Kd: it is the constant that tells how readily two partners part at equilibrium.

Active and inactive are the calls of the source. No cut-off for these calls is given here.

The subject of series [1] is Quadruplex DNA. Briefly: Binding affinity to FAM/TAMRA-labelled parallel c-MYC Pu24T G4 DNA (unknown origin) assessed as thermal stabilization by measuring change in melting temperature at 2 uM in the presence of 100 equivalents of double stranded DNA by FRET competition assay. In kind it is nucleic-acid assay.
The subject of series [2] is Quadruplex DNA. Briefly: Binding affinity to FAM/TAMRA-labelled c-KIT1 G4 DNA (unknown origin) assessed as thermal stabilization at 1 to 8 uM measured at 10 to 95 degreeC by FRET analysis. In kind it is nucleic-acid assay. The conditions noted are these: dose 1-8 µM.
For series [3], the system named is Quadruplex DNA. Briefly: Binding affinity to FAM/TAMRA-labelled antiparallel Bom17 G4 DNA (unknown origin) assessed as thermal stabilization at 1 to 8 uM measured at 10 to 95 degreeC by FRET analysis. The series is classed as nucleic-acid assay. The conditions noted are these: dose 1-8 µM.
The test system of series [4] is Quadruplex DNA. Description: Binding affinity to FAM/TAMRA-labelled c-KIT2 G4 DNA (unknown origin) assessed as thermal stabilization at 1 to 8 uM measured at 10 to 95 degreeC by FRET analysis. The series is classed as nucleic-acid assay. The conditions noted are these: dose 1-8 µM.
In series [5] the test system is Quadruplex DNA. Briefly: Binding affinity to FAM/TAMRA-labelled c-MYC Pu22 G4 DNA (unknown origin) assessed as thermal stabilization at 1 to 8 uM measured at 10 to 95 degreeC by FRET analysis. The series is classed as nucleic-acid assay. The conditions noted are these: dose 1-8 µM.
Series [6] can be described thus: Cytotoxicity against wildtype C57BL/6J mouse cancer activated fibroblast cells assessed as inhibition of cell growth incubated for 5 days by resazurin dye based fluorescence microscopic analysis. In kind it is toxicity.
Series [7] deals with Quadruplex DNA. Description: Binding affinity to FAM/TAMRA-labelled parallel KRAS G4 DNA (unknown origin) assessed as thermal stabilization in the presence of 15 equivalents of double stranded DNA by FRET competition assay. The series is classed as nucleic-acid assay.
Series [8] concerns Quadruplex DNA. Briefly: Binding affinity to FAM/TAMRA-labelled antiparallel TBA G4 DNA (unknown origin) assessed as thermal stabilization at 1 to 8 uM measured at 10 to 95 degreeC by FRET analysis. The series is classed as nucleic-acid assay. As to conditions: dose 1-8 µM.
The test system of series [9] is Quadruplex DNA. Briefly: Binding affinity to FAM/TAMRA-labelled parallel c-MYC Pu24T G4 DNA (unknown origin) assessed as thermal stabilization at 1 to 8 uM measured at 10 to 95 degreeC by FRET analysis. As to conditions: dose 1-8 µM. In kind it is nucleic-acid assay.
For series [10], the target named is Quadruplex DNA. Briefly: Binding affinity to 5'-Cy5-labelled parallel c-MYC Pu24T G4 DNA (unknown origin) assessed as dissociation constant by MST analysis. In kind it is nucleic-acid assay.
Series [11] has as its system Quadruplex DNA. Briefly: Binding affinity to FAM/TAMRA-labelled parallel KRAS G4 DNA (unknown origin) assessed as thermal stabilization by measuring change in melting temperature at 2 uM in the presence of 100 equivalents of double stranded DNA by FRET competition assay. The series is classed as nucleic-acid assay.
In series [12] the test system is dsDNA. Briefly: Binding affinity to double stranded DNA (unknown origin) assessed as thermal stabilization at 1 to 8 uM measured at 10 to 95 degreeC by FRET analysis. The series is classed as nucleic-acid assay. The conditions noted are these: dose 1-8 µM.
In series [13] the test system is Quadruplex DNA. Description: Binding affinity to FAM/TAMRA-labelled parallel 25ceb G4 DNA (unknown origin) assessed as thermal stabilization at 1 to 8 uM measured at 10 to 95 degreeC by FRET analysis. The series is classed as nucleic-acid assay. As to conditions: dose 1-8 µM.
The test system of series [14] is Quadruplex DNA. Briefly: Binding affinity to FAM/TAMRA-labelled parallel c-MYC Pu24T G4 DNA (unknown origin) assessed as thermal stabilization in the presence of 15 equivalents of double stranded DNA by FRET competition assay. The series is classed as nucleic-acid assay.
The subject of series [15] is Quadruplex DNA. Description: Binding affinity to parallel c-MYC Pu24T G4 DNA (unknown origin) assessed as change in topology at 5 uM by CD spectra analysis. In kind it is nucleic-acid assay.
Series [16] relates to Quadruplex DNA. Briefly: Binding affinity to FAM/TAMRA-labelled 21g G4 DNA (unknown origin) assessed as thermal stabilization at 1 to 8 uM measured at 10 to 95 degreeC by FRET analysis. In kind it is nucleic-acid assay. As to conditions: dose 1-8 µM.
The nature of series [17]: Antitumor activity against KPC mouse pancreatic cancer organoid expressing lentiviral modified GFP co-cultured with WT C57BL/6J mouse pancreatic stellate cells expressing mKate2 assessed as inhibition of cell growth incubated for 5 days by resazurin dye based fluorescence microscopic analysis. The series is classed as functional, tissue-based. As to conditions: 120 h. For orientation: Resazurin is reduced to fluorescent resorufin, in cell work by metabolically active cells.

Series [18] concerns Quadruplex DNA. Briefly: Binding affinity to parallel c-MYC Pu24T G4 DNA (unknown origin) assessed as thermal stabilization by measuring change in melting temperature at 5 uM measured at 1:1 DNA to ligand ratio by CD spectra analysis. In kind it is nucleic-acid assay.
Series [19] concerns Quadruplex DNA. Description: Binding affinity to FAM/TAMRA-labelled parallel KRAS G4 DNA (unknown origin) assessed as thermal stabilization at lowest concentration at 10 to 95 degreeC by FRET analysis. The series is classed as nucleic-acid assay.
Series [20] deals with Quadruplex DNA. Briefly: Binding affinity to FAM/TAMRA-labelled parallel KRAS G4 DNA (unknown origin) assessed as thermal stabilization at highest concentration at 10 to 95 degreeC by FRET analysis. The series is classed as nucleic-acid assay.

Turning to `Cc1cc(NCCCN2CCN(C)CC2)nc(Nc2nc(C)c3ccc4c(c3n2)CCC4)n1`, the ΔTm in series [1] turned out to be 7 °C; in series [11] it was 10 °C; in series [18] it was 5 °C. For the same compound, the outcome in [2], in series [4], in series [5], in [7], in series [9] and in series [14] was Active. Moreover, the outcome in series [16] was Active. The outcome in [3], in series [8], in [12], in [13] and in series [15] was inactive. In addition, the 50% inhibitory concentration (IC50) at 5 days in series [6] was determined as 0.264 µM. Also, the Kd in series [10] came out at 0.265 µM. In addition, the IC50 in series [17] was 0.211 µM.

Turning to `Cc1cc(NCCCN2CCCC2)nc(Nc2nc(C)c3ccc4c(c3n2)CCC4)n1`, the ΔTm in series [1] turned out to be 7 °C; in [11], 10 °C; in series [18], 5 °C. In addition, the outcome in series [2], in series [4], in series [5], in series [7], in series [9] and in [14] was Active. The outcome in series [16] was Active. Moreover, the outcome in series [3], in [8], in [12], in [13] and in series [15] was inactive. Further, the IC50 at 5 days in [6] is 2.52 µM. For the same compound, in series [10], the equilibrium dissociation constant (Kd) was determined as 0.275 µM. Further, in series [17], the IC50 amounted to 0.161 µM.

`Cc1cc(NCCc2c[nH]c3ccccc23)nc(Nc2nc(C)c3ccc4c(c3n2)CCC4)n1`: the result in series [19] and in series [12] was inactive. The outcome in [20] was Active.

As for `Cc1cc(NCCc2c[nH]c3ccccc23)nc(Nc2nc(C)c3ccc4c(c3n2)CCCC4)n1`, the outcome in [19] and in series [12] was inactive. Further, in series [20], the result was Active.

Turning to `Cc1cc(NCCCN2CCCCC2)nc(Nc2nc(C)c3ccc4c(c3n2)CCC4)n1`, the thermal shift (ΔTm) in series [1] stood at 7 °C; in [11] it was 10 °C; in [18] it was 4 °C. The outcome in series [2], in [4], in series [5], in [7], in [9] and in [14] was Active. Further, in series [16], the result was Active. Moreover, the result in series [3], in series [8], in series [12], in [13] and in series [15] was inactive. In addition, the IC50 at 5 days in series [6] is greater than 0.5 µM. In [10], the equilibrium dissociation constant (Kd) was found to be 0.285 µM. Further, the half-inhibitory concentration (IC50) in series [17] came to 0.793 µM.

For the compound `CCN(CC)CCCNc1cc(C)nc(Nc2nc(C)c3ccc4c(c3n2)CCC4)n1`, the ΔTm in [1] stood at 7 °C; in [11], 10 °C; in series [18], 5 °C. In addition, the outcome in [2], in series [4], in series [5], in series [7], in series [9] and in series [14] was Active. Also, the result in series [16] was Active. For the same compound, the outcome in [3], in [8], in series [12], in [13] and in [15] was inactive. Besides, the concentration for half-maximal inhibition (IC50) at 5 days in [6] was 2.82 µM. Moreover, in series [10], the Kd turned out to be 0.36 µM. Further, the IC50 in series [17] turned out to be 0.193 µM.
